Experimental data from patent US5462868A (priority 1991, dated 1995).
Where two headings read alike, the source gives them in different places.

Tests used:
cocaine esterase [1] = assay type: biochemical, Pseudomonas maltophilia MB11L; details: 1 mM inhibitor; for % ACTIVITY RELATIVE TO CONTROL: preincubated 30° C. 10 min, 2 mM cocaine, 0.9 U/ml=100% activity; for inhibition of cocaine esterase activity (in words): 30° C., 10 min
Protocol: (§1) The reaction was stopped by the addition of 10 μl of concentrated phosphoric acid and protein pelleted at 13,000 rpm in a minifuge. The amount of benzoic acid produced was determined by HPLC analysis of 50 μl of the supernatant and comparison to standard samples (0-1 mM) treated identically. Standard curves of peak height plotted against benzoic acid concentration were linear over the range 0-1 mM. Controls containing no enzyme solution were run to allow for background hydrolysis. An assay was considered invalid if no cocaine remained at the end of the assay (seen by HPLC). One unit of esterase activity is defined as the amount of enzyme required to produce 1 μmol of benzoic acid in 1 min at 30° C.
The possible inhibitors tested were phenylmethylsulphonyl fluoride (PMSF), eserine, para-hydroxymercuribenzoate (pHMB), benzoate and ecgonine methyl ester.

cocaine esterase [2] = assay type: biochemical, Pseudomonas maltophilia MB11L; details: for Km: read-out: Apparent Km
Protocol: as §1
Reactions were stopped using concentrated phosphoric acid (10 μl) to precipitate protein, which was removed by centrifugation at 13,000 rpm in a Microfuge. Rates of substrate hydrolysis were calculated from HPLC analyses of the incubations. Non-enzymic rates of hydrolysis were calculated from control samples containing no enzyme, and the enzyme assays corrected accordingly. Standard samples of the relevant free acids were used to calibrate each assay. […] Lineweaver-Burke and Eadie-Hofstee plots were used to obtain these values (see Fersht, 1985, Enzyme Structure and Mechanism, 2nd Edition, Publishers: W. H. Freeman & Co., Oxford for methods).

[3] = Screen of esterases for activity against cocaine (HPLC); assay type: biochemical; details: 2 mM cocaine in 50 mM buffer of pH suited for maximum enzyme activity
[4] = Specific activity of esterases against their usual substrate; assay type: biochemical; details: usual substrate of each enzyme
Protocol: Control incubations containing no enzyme were performed under each set of conditions to allow accurate assaying of enzyme activity.

[5] = purified cocaine esterase, 50 mM bis-tris-propane buffer pH 8.0, 30° C., 10 min, mean values

Molecule: O=C(O)c1ccccc1 [Benzoate, benzoate]
- % ACTIVITY RELATIVE TO CONTROL (cocaine esterase [1]): 92%

Molecule: COC(=O)[C@H]1[C@@H](OC(=O)c2ccccc2)C[C@@H]2CC[C@H]1N2C [Cocaine]
- Apparent Vmax (cocaine esterase [2]; [5]): 29.5 U/mg
- Km (cocaine esterase [2]; [5]): 360 µM

Molecule: COC(=O)[C@@H]1[C@H]2CC[C@@H](C[C@@H]1O)N2C [Ecgonine methyl ester, ecgonine methyl ester]
- % ACTIVITY RELATIVE TO CONTROL (cocaine esterase [1]): 82%

Molecule: CNC(=O)Oc1ccc2c(c1)[C@]1(C)CCN(C)[C@@H]1N2C [Eserine, eserine]
- inhibition of cocaine esterase activity (in words) (cocaine esterase [1]): relatively ineffective
- % ACTIVITY RELATIVE TO CONTROL (cocaine esterase [1]): 95%

Molecule: CCOC(=O)c1ccccc1O [Ethyl 2-hydroxycenzoate]
- Km (cocaine esterase [2]; [5]): 1750 µM

Molecule: CCOC(=O)c1cccc(O)c1 [Ethyl 3-hydroxybenzoate]
- Apparent Km (cocaine esterase [2]; [5]): No activity
- Apparent Vmax (cocaine esterase [2]; [5]): No activity

Molecule: CCOC(=O)c1ccc(O)cc1 [Ethyl 4-hydroxybenzoate]
- Apparent Km (cocaine esterase [2]; [5]): No activity
- Apparent Vmax (cocaine esterase [2]; [5]): No activity

Molecule: CCOC(=O)c1ccccc1 [Ethyl benzoate]
- Apparent Vmax (cocaine esterase [2]; pH 8): 65.0 U/mg
- Km (cocaine esterase [2]; pH 8): 1890 µM

Molecule: O=S(=O)(F)Cc1ccccc1 [PMSF, phenylmethylsulphonyl fluoride]
- inhibition of cocaine esterase activity (in words) (cocaine esterase [1]): total inactivation
- % ACTIVITY RELATIVE TO CONTROL (cocaine esterase [1]): 0%

Molecule: O=C(O)c1cc[c]([Hg][OH])cc1 [pHMB, para-hydroxymercuribenzoate]
- inhibition of cocaine esterase activity (in words) (cocaine esterase [1]): relatively ineffective
- % ACTIVITY RELATIVE TO CONTROL (cocaine esterase [1]): 86%

Molecule: Electric eel acetyl-cholinesterase: commercially available esterase enzyme
- SPECIFIC ACTIVITY (U/mg) AGAINST COCAINE [3]: 0 U/mg
- SPECIFIC ACTIVITY (U/mg) AGAINST USUAL SUBSTRATE [4]: 320 U/mg

Molecule: Horse serum butyryl-cholinesterase: commercially available esterase enzyme
- SPECIFIC ACTIVITY (U/mg) AGAINST COCAINE [3]: 0.098 U/mg
- SPECIFIC ACTIVITY (U/mg) AGAINST USUAL SUBSTRATE [4]: 14 U/mg

B1: Porcine pancreatic lipase: commercially available esterase enzyme (protein, UniProt P00591 1-450, looked up)
Pancreatic triacylglycerol …: SEVCFPRLGCFSDDAPWAGIVQRPLKILPWSPKDVDTRFLLYTNQNQNNYQELVADPSTITNSNFRMDRKTRFIIHGFIDKGEEDWLSNICKNLFKVESVNCICVDWKGGSRTGYTQASQNIRIVGAEVAYFVEVLKSSLGYSPSNVHVIGHSLGSHAAGEAGRRTNGTIERITGLDPAEPCFQGTPELVRLDPSDAKFVDVIHTDAAPIIPNLGFGMSQTVGHLDFFPNGGKQMPGCQKNILSQIVDIDGIWEGTRDFVACNHLRSYKYYADSILNPDGFAGFPCDSYNVFTANKCFPCPSEGCPQMGHYADRFPGKTNGVSQVFYLNTGDASNFARWRYKVSVTLSGKKVTGHILVSLFGNEGNSRQYEIYKGTLQPDNTHSDEFDSDVEVGDLQKVKFIWYNNNVINPTLPRVGASKITVERNDGKVYDFCSQETVREEVLLTLNPC
- SPECIFIC ACTIVITY (U/mg) AGAINST COCAINE [3]: 0 U/mg
- SPECIFIC ACTIVITY (U/mg) AGAINST USUAL SUBSTRATE [4]: 50 U/mg
